Data set [1] deals with mAb SH2. Description: Indirect titration ELISA of SH2 ascites against coated glycoconjugates. In kind it is binding, mouse. The note with it: for Binding of SH2 to coated antigen (titration, in words): antigens coated at 10 μg/mL, 2 and 5 also at 20 µg/mL (not shown). As for the experimental part: MaxiSorp NUNC 96-well enzyme-linked immunosorbent assay (ELISA) microtiter plate (Thermo Fisher Scientific) was coated with a dilution of glycoconjugates 1–5 and BSA (100 μL per well, […]) in a 10 mM phosphate-buffered saline (PBS) solution at pH 7.1. The plate was covered with sealing tape and incubated at 4 °C overnight. The antigen solution was discarded, and the plate was washed (using ELx405 auto plate washer, 5 × 15 s) with a 10 mM PBS buffer at pH 7.3 containing 0.05% Tween 20. The plate was blocked with 0.05% skim milk in 10 mM PBS (300 μL per well) and incubated for 1 h at 37 °C. The plate was then washed with 10 mM PBS-0.05% Tween 20. A 1:100 dilution of SH2 ascites was prepared and 146 μL of the dilution was distributed in the wells corresponding to the primary dilution. All other wells received 100 μL of the 10 mM PBS-0.05% Tween 20 pH 7.3 buffer. In-plate serial dilutions were performed in which 46 μL of the primary dilution was pipetted downward along the rows. The well contents were mixed by rinsing the pipette tips (7×). Lastly, 46 μL of the mAb solution was removed and discarded from the wells, which received the final solution of mAb (final volume in all wells, 100 μL). The last row of the 96-well plate was used as the blank control. MAb SH2 ascites were not pipetted into these wells, rather 100 μL of 10 mM PBS-0.05% Tween 20 was added. The plate was incubated for 2 h at 23 °C (in the dark). The plate was subsequently washed using the plate washer with PBS-0.05% Tween 20. A dilution of commercially available horseradish peroxidase labeled goat anti-mouse antibody (Mandel Scientific) (1:5000 in 10 mM PBS-0.05% Tween 20, 100 μL per well) was added to each well. After 1 h of incubation at 23 °C (in the dark), the plate was washed with PBS-0.05% Tween 20. A solution of the chromogenic substrate 3,3′,5,5′-tetramethylbenzidine (TMB) (Mandel Scientific) (100 μL per well) was added. After a 10 min incubation period at 23 °C (in the dark), 100 μL of 5% Phosphoric Acid stop solution was added to the wells to quench the reaction. The absorbance values were read at 450 nm employing a PowerWave XS plate reader. All samples were prepared in triplicate. The absorbance values were plotted against an increasing serum dilution. The values were fitted to a 4-parameter logistics sigmoidal equation: y = y0 + a/[1 + (x/x0)^b] using Sigma Plot®® 10.0.

For data set [2], the system named is mAb SH2. Description: Competitive ELISA: inhibition of mAb SH2 binding to immobilized (DimLe^x)16-BSA conjugate 1. The arrangement: species or system mouse. The note with it: (DimLe^x)16-BSA 1 immobilized; SH2 serum dilution 1:500 (Figure 5). As for the experimental part:
A MaxiSorp NUNC 96-well ELISA microtiter plate was coated with a dilution of the (DimLe^x)16-BSA conjugate 1 (100 μL per well, 5 μg/mL) in a 10 mM PBS solution at pH 7.1. The plate was covered with sealing tape and incubated at 4 °C overnight. The antigen solution was discarded, and the plate was washed (using ELx405 auto plate washer, 5 × 15 s) with a 10 mM PBS buffer at pH 7.3 containing 0.05% Tween 20. In 1.5 mL Eppendorf tubes, 175 μL dilutions of competitors (concentration ranging from 0.632 mg/mL to 2 mg/mL in 10 mM PBS-0.05% Tween 20) were incubated for 1 h at 23 °C (in the dark) with 175 μL of a solution of SH2 ascites (1:500 dilution in 10 mM PBS-0.05% Tween 20). At the same time, the plate was blocked with 0.05% skim milk in PBS (300 μL per well). After 1 h of incubation at 37 °C, the plate was washed with 10 mM PBS-0.05% Tween 20. Each well then received 100 μL of the competitor-mAb mixture. Three wells were used as the blank control in which the competitor-mAb mixture was not added, rather received 100 μL of 10 mM PBS-0.05% Tween 20. The plate was incubated for 3 h at 23 °C (in the dark). The plate was subsequently washed using the plate washer with PBS-0.05% Tween 20. A dilution of commercially available horseradish peroxidase labeled goat anti-mouse antibody (1:5000 in 10 mM PBS-0.05% Tween 20, 100 μL per well) was added to each well. After 1 h of incubation at 23 °C (in the dark), the plate was washed with 10 mM PBS-0.05% Tween 20. A solution of the chromogenic substrate TMB (100 μL per well) was added. After a 10 min incubation period at 23 °C (in the dark), 100 μL of 5% Phosphoric Acid stop solution was added to the wells to quench the reaction. The absorbance values were read at 450 nm employing a PowerWave XS plate reader. All samples were prepared in triplicate. The absorbance values were plotted as the percentage inhibition against an increasing concentration of competitor, calculated using wells containing no competitor as the reference point. The values were fitted to a 4-parameter logistics sigmoidal equation: y = y0 + a/[1 + (x/x0)^b] using Sigma Plot 10.0. The concentration of each analogue required for 50% inhibition (IC50) of Le^x-SH2 binding and the corresponding changes in free energy Δ(ΔG) of binding (kcal·mol^−1) using DimLe^xOPr 6 (Table 1) or Le^xOMe 7 (Table 2) as the reference were calculated.

With (DimLe^x)6-TT [compound 2], the “Binding of SH2 to coated antigen (titration, in words)” value (shortened to “Binding of SH2 to coated antigen”) in the data set with mAb SH2 [1] is “very little binding”.

For (DimLe^x)16-BSA [compound 1], the “Inhibition of SH2 binding to (DimLe^x)16-BSA by glycoconjugates as soluble inhibitors (in words)” value (“Inhibition of SH2 binding” below) in the data set on mAb SH2 [2] is given as “able to inhibit binding”. Moreover, in the data set with mAb SH2 [1] (coating with 3 µg/mL of the conjugate (Figure S1)), the “Titration curve of SH2 (in words)” value is “did not reach maximum optical density”. As for (GDimLe^x)16-BSA [compound 5], in the data set on mAb SH2 [1], the “Binding of SH2 to coated antigen” value is listed as “no binding”.

For the substance (Le^x)10-BSA [compound 3], in the data set with mAb SH2 [2], the “Inhibition of SH2 binding” value is given as “did not”. The “Binding of SH2 to coated antigen” value with mAb SH2 [1] is given as “no binding”. Turning to (Le^x)35-BSA [compound 4], the “Inhibition of SH2 binding” value in the data set on mAb SH2 [2] was “did not”. The “Binding of SH2 to coated antigen” value with mAb SH2 [1] is “weakly binds”. With “bovine serum albumin [BSA, reference compound]”, in the data set on mAb SH2 [1], the “Binding of SH2 to coated antigen” value is “no affinity”.

The values above are taken from publication PMC7563222, “Recognition of Dimeric Lewis X by Anti-Dimeric Le^x Antibody SH2” (Vaccines, 2020).
